Each structure is given as a SMILES string.

Assay [1] concerns the target EPSPS activity in extracts from the glyphosate tolerant E. indica biotype (Eleusine indica, UniProt Q95AK1). The following applies: read-out: I50 (glyphosate); tolerant biotype plant extract; 0.5 mM PEP, 1 mM shikimate-3-phosphate, 25°C; Figure 4.
Method: Preparation of extracts and radiometric EPSP synthase assays are performed using methods adapted from published procedures (Padgette et al., J. Biol. Chem. 266:22364-22369 (1991). Crown regions are dissected from whole plants, pulverized under liquid nitrogen with a mortar and pestle, then stored at -80°C prior to extraction. Homogenates are prepared from 0.5 g tissue per sample in 25 ml extraction buffer (100 mM TrisCl, 10 % glycerol, 1 mM EDTA, 1 mM benzamidine, 1 mM dithiothreitol, 1 mM 4-(2-aminoethyl)-benzenesulfonyl floride HCl, 0.1 mM leupeptin, pH 7.4) at 4°C using a model PT3000 Polytron homogenizer (Brinkman Instuments Inc., Westbury, NY). Debris is removed by 0.2 µm filtration, then the resulting supernatant is concentrated and desalted using an Ultrafree-15 centrifugal filtration unit (cat.# UFV2-BGC-10, Millipore Corp., Bedford, MA). Final sample volumes are approximately 0.5 ml. Protein concentrations are determined spectrophotometrically using the Bio-Rad protein assay reagent (cat.#500-0006, Bio-Rad Laboratories, Hercules, CA). EPSPS specific activities are determined by assaying 10 µl extract at 25°C for 5- 15 min. […] Reactions are quenched with the addition of 50 µl 9:1 ethanol: 0.1 M acetic acid. […]
Assay [2] relates to E. coli SR481 cells transformed with pMON45364 (Ei.EPSPS:glypR). In words: growth rates of transgenic E. coli on glyphosate containing media. The class given is cell-based. The following applies: growth (O.D.595) in minimal M9 media with 0.0, 0.5, 1.5 or 5.0 mM glyphosate; cells expressing EPSPS of tolerant biotype (pMON45364) versus sensitive biotype (pMON45365); Figure 3. An excerpt: The EPSP synthase mature protein-coding regions isolated from the glyphosate tolerant and glyphosate sensitive E. indica biotypes, can be directly compared for their ability to confer tolerance to glyphosate in transgenic hosts. […] This was inserted by ligation to facilitate expression and cloning at the ATG start codon of an open reading frame.
These sequences are employed in RT-PCR reactions to generate expression cassettes suitable for cloning into pMON45337 cut with the restriction enzymes Nde1 and EcoR1. RT-PCR reactions are performed with total RNAs extracted from frozen crown samples using the RNeasy Plant Mini Kit (cat.# 74904, Qiagen Inc., Valencia, CA) per manufacturer's instructions. Oligo·dT-primed first-strand cDNAs are prepared from 5 µg samples of total RNA using the Superscript Pre-Amplification System (cat.# 18089-011, Life Technologies, Rockville, MD) per manufacturer's instructions. Two µl of first-strand cDNA are then used to generate E. indica EPSP synthase expression cassettes via polymerase chain reaction. The oligonucleotides are added in 50 µl RT-PCR reactions at a final concentration of 0.4 µM. […]

Assay [3] has as its target native EPSPS from E. coli (Escherichia coli, UniProt P0A6D3). The following applies: read-out: apparent Ki for glyphosate; cited from earlier work.
A further assay has as its target T1, E. indica glypS EPSPS (Eleusine indica, UniProt Q95AK0).
T1 sequence (Q95AK0 1-445): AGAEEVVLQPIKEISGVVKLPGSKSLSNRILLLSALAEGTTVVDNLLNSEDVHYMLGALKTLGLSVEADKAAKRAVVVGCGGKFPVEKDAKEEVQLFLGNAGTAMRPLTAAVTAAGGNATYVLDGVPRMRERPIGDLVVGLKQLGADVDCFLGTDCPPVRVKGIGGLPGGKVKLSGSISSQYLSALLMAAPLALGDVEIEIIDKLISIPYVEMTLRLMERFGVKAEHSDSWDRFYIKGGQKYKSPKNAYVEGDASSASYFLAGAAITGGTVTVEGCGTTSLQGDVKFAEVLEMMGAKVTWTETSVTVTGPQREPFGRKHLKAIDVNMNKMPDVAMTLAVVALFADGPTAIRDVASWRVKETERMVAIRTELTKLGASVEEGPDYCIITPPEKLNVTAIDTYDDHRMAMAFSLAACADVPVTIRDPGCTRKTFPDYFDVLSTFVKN
In words: enzyme kinetics, Km(PEP) and Ki (glyphosate). The class given is biochemical. The following applies: apparent Km, saturating S3P.

native EPSPS from E. coli, sequence (P0A6D3 whole entry): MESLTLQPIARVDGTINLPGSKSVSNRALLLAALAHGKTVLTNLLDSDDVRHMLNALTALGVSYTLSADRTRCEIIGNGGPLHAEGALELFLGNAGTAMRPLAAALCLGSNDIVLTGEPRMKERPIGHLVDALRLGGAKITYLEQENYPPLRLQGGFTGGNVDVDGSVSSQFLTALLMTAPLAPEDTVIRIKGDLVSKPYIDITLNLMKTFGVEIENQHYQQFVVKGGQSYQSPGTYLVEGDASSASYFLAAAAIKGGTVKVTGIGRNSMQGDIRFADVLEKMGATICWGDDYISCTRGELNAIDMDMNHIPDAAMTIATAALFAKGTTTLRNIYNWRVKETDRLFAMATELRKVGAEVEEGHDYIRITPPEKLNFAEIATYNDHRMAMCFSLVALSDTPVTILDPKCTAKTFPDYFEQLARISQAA
EPSPS activity in extracts from the glyphosate tolerant E. indica biotype, sequence (Q95AK1 entry or part of it): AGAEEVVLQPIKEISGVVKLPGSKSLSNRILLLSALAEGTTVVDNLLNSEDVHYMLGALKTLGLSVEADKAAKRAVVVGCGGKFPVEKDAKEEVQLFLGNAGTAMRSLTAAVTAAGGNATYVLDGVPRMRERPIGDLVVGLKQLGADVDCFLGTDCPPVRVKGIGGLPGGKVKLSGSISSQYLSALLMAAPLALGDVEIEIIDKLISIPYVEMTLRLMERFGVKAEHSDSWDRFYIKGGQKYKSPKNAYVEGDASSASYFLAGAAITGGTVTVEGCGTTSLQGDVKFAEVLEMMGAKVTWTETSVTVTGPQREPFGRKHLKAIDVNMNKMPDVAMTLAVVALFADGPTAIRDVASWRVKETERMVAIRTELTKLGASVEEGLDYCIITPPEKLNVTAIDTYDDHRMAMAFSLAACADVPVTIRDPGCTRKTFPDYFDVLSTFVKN
Method for E. indica glypS EPSPS: Calculations, graphical representation, and statistical analysis of enzyme kinetic data are performed using GraFit version 3.0 software (Erithacus Software Ltd., Staines, U.K.).

In the case of `O=C(O)CNCP(=O)(O)O` [glyphosate, N-phosphonomethylglycine], the IC50 in assay [1] is roughly 16 µM. Besides, the “increase in tolerance to glyphosate” value in assay [2] is on record as “approximately three-fold”. Further, the Ki in assay [3] was 0.5 µM.

Take `C=C(OP(=O)(O)O)C(=O)O` [PEP, phosphoenolpyruvate]: the KmPEP at E. indica glypS EPSPS was 5 M.

The record behind these values is patent publication EP1582583A2 (priority 2000, dated 2001).
